The test system of the test is cucumber downy mildew. As to the kind of experiment: Activity in vivo for inhibiting cucumber downy mildew (potting method, greenhouse). As to conditions: for efficacy compared with dimethomorph and cyazofamid / efficacy compared with oxathiapiprolin / bactericidal activity: in words.
The mark [1] stands for this setting: 0.078 mg/L, re-screening, Table 2.
Setting [2] is: 0.312 mg/L, re-screening, Table 2.
[3] abbreviates: 1.25 mg/L, re-screening, Table 2.
Setting [4] is: 0.02 mg/L, re-screening, Table 2.

Source text: The test and investigation method refers to a SOP-SC-1098 cucumber downy mildew potting method in the fungicide section of Standard operation Specification for testing biological Activity of pesticides written by Kang Zhuo and Gu Baogen.

On to `CCCC(C(=O)N1CCC(c2nc(C3=NOC(c4c(F)cccc4F)C3)cs2)CC1)C(OC)OC` (stereo not shown) [II-8], for which the Control effect entry reads like this: (1.25 mg/L, Table 1) “D (45%≤D<60%)”; (5 mg/L, Table 1) “C (60%≤C<75%)”; (20 mg/L, Table 1) “A (90%≤A≤100%)”.
For the molecule `COC(OC)C(C(=O)N1CCC(c2nc(C3=NOC(c4c(F)cccc4F)C3)cs2)CC1)c1ccccc1` (stereo not shown) [II-10], the Control effect entry (20 mg/L, Table 1) is on record as “D (45%≤D<60%)”.
For the molecule `CO/N=C(/C(=O)N1CCC(c2nc(C3=NOC(c4c(F)cccc4F)C3)cs2)CC1)c1cc(C)ccc1C` (stereo not shown) [Compound I-25], the Control effect entry (1.25 mg/L, Table 1) is “C (60%≤C<75%)”; the Control effect entry (5 mg/L, Table 1) is on record as “B (75%≤B<90%)”; the Control effect result (20 mg/L, Table 1) is “A (90%≤A≤100%)”.
On to `CO/N=C(/C(=O)N1CCC(c2nc(C3=NOC(c4c(F)cccc4F)C3)cs2)CC1)c1cccc(C)c1` (stereo not shown) [Compound I-20], for which the Control effect entry (20 mg/L, Table 1) was “D (45%≤D<60%)”.
Regarding `CO/C=C(\F)C(=O)N1CCC(c2nc(C3=NOC(c4c(F)cccc4F)C3)cs2)CC1` (stereo not shown) [Compound I-2], the Control effect entry is, setting by setting: (1.25 mg/L, Table 1) “B (75%≤B<90%)”; (5 mg/L, Table 1) “B (75%≤B<90%)”; (20 mg/L, Table 1) “A (90%≤A≤100%)”.
With `CO/C=C(/C(=O)N1CCC(c2nc(C3=NOC(c4c(F)cccc4F)C3)cs2)CC1)c1ccccc1` (stereo not shown) [Compound I-12], the Control effect result is, setting by setting: (5 mg/L, Table 1) “D (45%≤D<60%)”; (20 mg/L, Table 1) “B (75%≤B<90%)”.
Consider `CO/C=C(/C(=O)N1CCC(c2nc(C3=NOC(c4c(F)cccc4F)C3)cs2)CC1)c1ccccc1C` (stereo not shown) [Compound I-11], for which, where the note is “20 mg/L, Table 1”, the Control effect entry was “C (60%≤C<75%)”.
Regarding `CC/C(=C\OC)C(=O)N1CCC(c2nc(C3=NOC(c4c(F)cccc4F)C3)cs2)CC1` (stereo not shown) [Compound I-8], the Control effect entry reads like this: (1.25 mg/L, Table 1) “A (90%≤A≤100%)”; (5 mg/L, Table 1) “A (90%≤A≤100%)”; (20 mg/L, Table 1) “A (90%≤A≤100%)”.
Take `COC(OC)C(C)C(=O)N1CCC(c2nc(C3=NOC(c4c(F)cccc4F)C3)cs2)CC1` (stereo not shown) [II-6]: the Control effect entry runs as follows: (5 mg/L, Table 1) “D (45%≤D<60%)”; (20 mg/L, Table 1) “C (60%≤C<75%)”.
For `CCO/N=C(\C#N)C(=O)N1CCC(c2nc(C3=NOC(c4c(F)cccc4F)C3)cs2)CC1` (stereo not shown) [Compound I-28] the same measures were “B (75%≤B<90%)” and “A (90%≤A≤100%)”.
In the case of `CCOC(CC(=O)N1CCC(c2nc(C3=NOC(c4c(F)cccc4F)C3)cs2)CC1)OCC` (stereo not shown) [II-2], the Control effect entry is, setting by setting: under setting [1], “B (75%≤B<90%)”; under setting [2], “A (90%≤A≤100%)”; (1.25 mg/L, Table 1) “A (90%≤A≤100%)”; under setting [3], “A (90%≤A≤100%)”; (5 mg/L, Table 1) “A (90%≤A≤100%)”; (20 mg/L, Table 1) “A (90%≤A≤100%)”.
With `COc1ccc(C(=CC(=O)N2CCOCC2)c2ccc(Cl)cc2)cc1OC` [dimethomorph, reference compound], the Control effect entry reads like this: under setting [4], “C (60%≤C<75%)”; under setting [1], “B (75%≤B<90%)”; under setting [2], “A (90%≤A≤100%)”; under setting [3], “A (90%≤A≤100%)”.
As for `CCOC(CC(=O)N1CCC(c2nc(C3=NOC(c4c(F)cccc4F)C3)cs2)CC1)OCC(F)(F)F` (stereo not shown) [II-19], the Control effect result runs as follows: (0.005 mg/L, re-screening, Table 2) “B (75%≤B<90%)”; under setting [4], “A (90%≤A≤100%)”; (0.078 mg/L, re-screening) ≥ 90%; under setting [1], “A (90%≤A≤100%)”; under setting [2], “A (90%≤A≤100%)”; (0.625 mg/L, Table 3) “A (90% ≤ A ≤ 100%)”. The Control effect entry is “A (90%≤A≤100%)” (1.25 mg/L, Table 1); “A (90%≤A≤100%)” under setting [3]; “A (90% ≤ A ≤ 100%)” (2.5 mg/L, Table 3); “A (90%≤A≤100%)” (5 mg/L, Table 1); “A (90% ≤ A ≤ 100%)” (10 mg/L, Table 3); “A (90%≤A≤100%)” (20 mg/L, Table 1). Further, under “0.078 mg/L”, the “efficacy compared with dimethomorph and cyazofamid” value is “superior to that of dimethomorph and cyazofamid”. In addition, the “efficacy compared with oxathiapiprolin” value (0.078 mg/L) was “equivalent to that of oxathiapiprolin at the same concentration”. For the same molecule, the bactericidal activity entry (re-screening) is “excellent bactericidal activity”.
On to `CCCCC(C(=O)N1CCC(c2nc(C3=NOC(c4c(F)cccc4F)C3)cs2)CC1)C(OC)OC` (stereo not shown) [II-9], for which the Control effect entry runs as follows: (1.25 mg/L, Table 1) “D (45%≤D<60%)”; (5 mg/L, Table 1) “B (75%≤B<90%)”; (20 mg/L, Table 1) “A (90%≤A≤100%)”.
For `CO/C=C(\C#N)C(=O)N1CCC(c2nc(C3=NOC(c4c(F)cccc4F)C3)cs2)CC1` (stereo not shown) [Compound I-6], for the setting “20 mg/L, Table 1”, the Control effect result is recorded as “B (75%≤B<90%)”.
Turning to `CO/C=C/C(=O)N1CCC(c2nc(C3=NOC(c4c(F)cccc4F)C3)cs2)CC1` (stereo not shown) [Compound I-1], the Control effect result is recorded as “A (90%≤A≤100%)” (1.25 mg/L, Table 1); “A (90%≤A≤100%)” (5 mg/L, Table 1); “A (90%≤A≤100%)” (20 mg/L, Table 1).
On to `CO/C=C(\Br)C(=O)N1CCC(c2nc(C3=NOC(c4c(F)cccc4F)C3)cs2)CC1` (stereo not shown) [Compound I-4], for which the Control effect result by setting is: (1.25 mg/L, Table 1) “B (75%≤B<90%)”; (5 mg/L, Table 1) “A (90%≤A≤100%)”; (20 mg/L, Table 1) “A (90%≤A≤100%)”.
For the molecule `CO/N=C(/C(=O)N1CCC(c2nc(C3=NOC(c4c(F)cccc4F)C3)cs2)CC1)c1ccc(C)cc1C` (stereo not shown) [Compound I-21], the Control effect entry (20 mg/L, Table 1) is recorded as “D (45%≤D<60%)”.
As for `CCOC(CC(=O)N1CCC(c2nc(C3=NOC(c4c(F)cccc4F)C3)cs2)CC1)OCc1ccccc1` (stereo not shown) [II-5], the Control effect result reads like this: (5 mg/L, Table 1) “D (45%≤D<60%)”; (20 mg/L, Table 1) “A (90%≤A≤100%)”.
`CO/C=C(/C(=O)N1CCC(c2nc(C3=NOC(c4c(F)cccc4F)C3)cs2)CC1)c1cc(C)ccc1C` (stereo not shown) [Compound I-14]: the Control effect entry (1.25 mg/L, Table 1) is “A (90%≤A≤100%)”; the Control effect result (5 mg/L, Table 1) is given as “A (90%≤A≤100%)”; the Control effect entry (20 mg/L, Table 1) is “A (90%≤A≤100%)”.
On to `CCCOC(CC(=O)N1CCC(c2nc(C3=NOC(c4c(F)cccc4F)C3)cs2)CC1)OCC` (stereo not shown) [II-4], for which the “efficacy compared with dimethomorph and cyazofamid” value (0.078 mg/L) is “superior to that of dimethomorph and cyazofamid”. The “efficacy compared with oxathiapiprolin” value (0.078 mg/L) is reported as “equivalent to that of oxathiapiprolin at the same concentration”. Also, the Control effect runs as follows: (0.078 mg/L, re-screening) ≥ 90%; under setting [1], “A (90%≤A≤100%)”; under setting [2], “A (90%≤A≤100%)”; (1.25 mg/L, Table 1) “A (90%≤A≤100%)”; under setting [3], “A (90%≤A≤100%)”; (5 mg/L, Table 1) “A (90%≤A≤100%)”. In addition, under “20 mg/L, Table 1”, the Control effect entry is reported as “A (90%≤A≤100%)”. Moreover, under “re-screening”, the bactericidal activity result is “excellent bactericidal activity”.
In the case of `CO/N=C(/C(=O)N1CCC(c2nc(C3=NOC(c4c(F)cccc4F)C3)cs2)CC1)c1ccccc1C` (stereo not shown) [Compound I-19], the Control effect result was “B (75%≤B<90%)” under setting [1]; “A (90%≤A≤100%)” under setting [2]; “A (90%≤A≤100%)” (1.25 mg/L, Table 1); “A (90%≤A≤100%)” under setting [3]; “A (90%≤A≤100%)” (5 mg/L, Table 1); “A (90%≤A≤100%)” (20 mg/L, Table 1).
For the molecule `CCO/N=C(/C(=O)N1CCC(c2nc(C3=NOC(c4c(F)cccc4F)C3)cs2)CC1)c1cc(C)ccc1C` (stereo not shown) [Compound I-26], the Control effect entry is, setting by setting: (1.25 mg/L, Table 1) “D (45%≤D<60%)”; (5 mg/L, Table 1) “D (45%≤D<60%)”; (20 mg/L, Table 1) “C (60%≤C<75%)”.
Regarding `CO/C=C(\Cl)C(=O)N1CCC(c2nc(C3=NOC(c4c(F)cccc4F)C3)cs2)CC1` (stereo not shown) [Compound I-3], the Control effect entry reads like this: (1.25 mg/L, Table 1) “A (90%≤A≤100%)”; (5 mg/L, Table 1) “A (90%≤A≤100%)”; (20 mg/L, Table 1) “A (90%≤A≤100%)”.
`CCO/N=C/C(=O)N1CCC(c2nc(C3=NOC(c4c(F)cccc4F)C3)cs2)CC1` (stereo not shown) [Compound I-29]: the Control effect entry was “A (90%≤A≤100%)” (1.25 mg/L, Table 1); “A (90%≤A≤100%)” (5 mg/L, Table 1); “A (90%≤A≤100%)” (20 mg/L, Table 1).
As to `CC/C(=N\OC)C(=O)N1CCC(c2nc(C3=NOC(c4c(F)cccc4F)C3)cs2)CC1` (stereo not shown) [Compound I-24], the Control effect entry (1.25 mg/L, Table 1) is listed as “C (60%≤C<75%)”; the Control effect entry (5 mg/L, Table 1) was “B (75%≤B<90%)”; the Control effect entry (20 mg/L, Table 1) was “A (90%≤A≤100%)”.
For `CCO/C(C)=C/C(=O)N1CCC(c2nc(C3=NOC(c4c(F)cccc4F)C3)cs2)CC1` (stereo not shown) [Compound I-30] the same measures were “B (75%≤B<90%)”, “B (75%≤B<90%)” and “A (90%≤A≤100%)”.
For `CC1(CC(=O)N2CCC(c3nc(C4=NOC(c5c(F)cccc5F)C4)cs3)CC2)OCCO1` (stereo not shown) [II-11] the same measures were “D (45%≤D<60%)”, “C (60%≤C<75%)” and “A (90%≤A≤100%)”.
Regarding `CCC(C(=O)N1CCC(c2nc(C3=NOC(c4c(F)cccc4F)C3)cs2)CC1)C(OC)OC` (stereo not shown) [II-7], the Control effect result (5 mg/L, Table 1) is “D (45%≤D<60%)” and the Control effect entry (20 mg/L, Table 1) is listed as “B (75%≤B<90%)”.
`O=C(CC1OCCCCO1)N1CCC(c2nc(C3=NOC(c4c(F)cccc4F)C3)cs2)CC1` (stereo not shown) [II-28]: the Control effect result runs as follows: (5 mg/L, Table 1) “C (60%≤C<75%)”; (20 mg/L, Table 1) “C (60%≤C<75%)”.
Take `CO/N=C(/C(=O)N1CCC(c2nc(C3=NOC(c4c(F)cccc4F)C3)cs2)CC1)c1ccccc1` (stereo not shown) [Compound I-18]: for the setting “20 mg/L, Table 1”, the Control effect entry is on record as “D (45%≤D<60%)”.
For `CC1COC(C)(CC(=O)N2CCC(c3nc(C4=NOC(c5c(F)cccc5F)C4)cs3)CC2)O1` (stereo not shown) [II-12], the Control effect entry reads like this: (5 mg/L, Table 1) “D (45%≤D<60%)”; (20 mg/L, Table 1) “A (90%≤A≤100%)”.
Regarding `CO/N=C/C(=O)N1CCC(c2nc(C3=NOC(c4c(F)cccc4F)C3)cs2)CC1` (stereo not shown) [Compound I-22], the Control effect result under setting [1] is given as “B (75%≤B<90%)”; the Control effect result under setting [2] is reported as “B (75%≤B<90%)”; the Control effect entry (1.25 mg/L, Table 1) is listed as “A (90%≤A≤100%)”; the Control effect entry under setting [3] is “A (90%≤A≤100%)”; the Control effect entry (5 mg/L, Table 1) is listed as “A (90%≤A≤100%)”; the Control effect result (20 mg/L, Table 1) was “A (90%≤A≤100%)”.
In the case of `CO/N=C(\C)C(=O)N1CCC(c2nc(C3=NOC(c4c(F)cccc4F)C3)cs2)CC1` (stereo not shown) [Compound I-23], the Control effect result reads like this: (1.25 mg/L, Table 1) “D (45%≤D<60%)”; (5 mg/L, Table 1) “B (75%≤B<90%)”; (20 mg/L, Table 1) “B (75%≤B<90%)”.

The record behind these values is patent US20260363243A1 (priority 2022, published 2026).
